From patent publication US20120283303A1, “USE OF N-AMINOIMIDAZOLE CYTOPROTECTIVE COMPOUNDS FOR TREATING CELL DEATH AND/OR GSK-3 MEDIATED DISEASES” (K.U.LEUVEN RESEARCH AND DEVELOPMENT, priority 2006, published 2012)
≈ marks a conversion by molar mass, not a printed value. Where two headings read alike, the source gives them in different places.

Assays:
[1] = system: M17-TAU P301L cells; assay: TAU cytotoxicity (LDH leakage) in retinoic acid incubated M17-TAU P301L cells; type: cell-based, human; conditions: reduction of LDH activity of retinoic acid incubated M17-TAU P301L cells, 7 days
Excerpt: An TAU expression plasmid was constructed by sub-cloning the cDNA of human TAU-P301L (encoding for TAU with proline 301 substituted by a leucine residue) into mammalian expression vector pcDNA3.1 resulting in plasmid pcDNA3.1-TAU P301L. Plasmids pcDNA3.1 and pcDNA3.1-TAU P301L were transfected to human neuroblastoma cells ([…]; ATCC No. CRL-2267) and independent clonal lines with the plasmids stably integrated into the genome were selected. […] Expression of the TAU P301L genes in the cell lines was confirmed by Western analysis.
In degenerated or dead cells, lactate dehydrogenase (LDH) is leaked out of the cells into the extracellular environment due to a loss of plasma-membrane integrity. This principle was used to determine cytotoxicity by quantifying the level of leaked LDH into the growth medium.
The detailed method for determining TAU cytotoxicity was as follows: From appropriate precultures of M17-3.1 and M17-TAU(P301L) cells were seeded at 2500 cells/cm2 in Optimem Reduced Serum without phenol red (Gibco, Cat. 31985-047) supplemented with 1% fetal calf serum, 1 mM sodium pyruvate, 1× non-essential amino acids, 500 μg/ml G418 0.5× antibiotic/antimycotic. After 3 hours of incubation at 37° C./5% CO2 1 volume of Optimem Reduced Serum (same as described above; except without fetal calf serum) supplemented with 2.5 μM retinoic acid (RA) was added. The cells were further incubated for 7 days. Subsequently, LDH activity was determined using Promega Cytotox 96 Non-Radioactive cytotoxicity assay, (Cat. G1780) according the supplier's instructions.
The M17-TAU P301L cell line made it possible to assess the ability of the compounds of this invention to counteract TAU cytotoxicity. […] Potency of the relevant compounds was determined by testing them at different concentrations ranging from non-effective (thus at a relatively low concentration) to an effective concentration for their ability to reduce LDH activity of retinoic acid incubated M17-TAU P301L cells.

[2] = molecular target: T1, GSK-3α (Homo sapiens, UniProt P49840); assay: Radiometric kinase activity assay; type: biochemical; conditions: same experimental set-up as Table 1
T1 construct: purchased Upstate Biotechnology
T1 sequence (P49840 whole entry): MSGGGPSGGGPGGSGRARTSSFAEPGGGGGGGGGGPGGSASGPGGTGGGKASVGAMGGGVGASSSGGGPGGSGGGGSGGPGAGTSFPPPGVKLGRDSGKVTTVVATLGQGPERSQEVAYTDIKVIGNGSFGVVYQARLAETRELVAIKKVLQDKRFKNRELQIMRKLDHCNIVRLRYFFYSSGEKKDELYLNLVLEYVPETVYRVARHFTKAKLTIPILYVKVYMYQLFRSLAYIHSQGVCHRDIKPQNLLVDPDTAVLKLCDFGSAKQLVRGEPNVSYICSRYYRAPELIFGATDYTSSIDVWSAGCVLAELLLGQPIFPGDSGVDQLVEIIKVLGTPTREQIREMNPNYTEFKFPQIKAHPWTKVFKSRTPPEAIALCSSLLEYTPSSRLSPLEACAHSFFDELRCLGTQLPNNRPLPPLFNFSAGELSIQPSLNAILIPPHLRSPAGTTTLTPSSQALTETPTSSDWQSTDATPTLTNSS
Description: (§1) GSK-3 were assayed for their ability to phosphorylate the appropriate peptide/protein substrate in the presence of 5 μg/ml NR-818 and 10 μM ATP. Using the direct radiometric approach, kinase activities were determined and expressed as % activity compared to the untreated control (Upstate Biotechnology, Lake Placid, N.Y.). Activities are given as the mean of duplicate determinations relative to control incubations in which the inhibitor was substituted with DMSO. In the following table 1 providing results for NR818, the following abbreviations are used: • CDK, cyclin-dependent kinase; • CK, casein kinase; • eEF-2K, eukaryotic elongation factor-2 kinase; • JNK, c-Jun N-terminal kinase; • MAPK, mitogen-activated protein kinase; • PKC, protein kinase C; and • PI 3-kinase, phosphatidylinositol 3-kinase.
(§2) By using this experimental set-up, the inhibiting activity of NR953 on GSK-3 is also tested.

[3] = molecular target: T2, GSK-3β (Homo sapiens, UniProt P49841); assay: Radiometric kinase activity assay; type: biochemical; conditions: same experimental set-up as Table 1
T2 construct: purchased Upstate Biotechnology
T2 sequence (P49841 whole entry): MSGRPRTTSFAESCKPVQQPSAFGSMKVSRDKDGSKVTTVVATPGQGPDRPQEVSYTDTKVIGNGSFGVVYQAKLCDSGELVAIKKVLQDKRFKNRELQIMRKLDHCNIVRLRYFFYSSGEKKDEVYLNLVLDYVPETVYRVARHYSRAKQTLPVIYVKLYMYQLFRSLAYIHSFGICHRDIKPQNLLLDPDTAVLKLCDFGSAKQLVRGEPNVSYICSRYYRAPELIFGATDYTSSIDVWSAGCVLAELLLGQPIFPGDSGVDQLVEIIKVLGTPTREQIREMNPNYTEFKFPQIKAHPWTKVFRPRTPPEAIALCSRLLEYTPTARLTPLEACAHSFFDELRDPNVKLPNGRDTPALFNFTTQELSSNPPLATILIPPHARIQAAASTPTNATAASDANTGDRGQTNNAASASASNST
Description: as §1, §2

[4] = system: Peripheral blood mononuclear cells (PBMCs); assay: PBMC survival (viable cell count, trypan blue exclusion); type: cell-based, human; conditions: NAIM alone, compared to control conditions
Description: Peripheral blood mononuclear cells (PBMCs) from healthy donors were isolated by density centrifugation (Lymphoprep; Nycomed Pharma, AS Diagnostics, Oslo, Norway). For the “non-stimulated” conditions (NS) the cells were cultivated at a density of 1,750,000 cells per ml in RPMI-1640 supplemented with 2 mM L-glutamine, 15% FCS and 0.1% NaHCO3 for 3 days. […] At day 0 of the experiment, the NS and activated cells (PHA-stimulated blasts) were washed with PBS and were pelleted by centrifugation. […] The number of viable cells was counted based on the trypan blue exclusion method. The evolution of the number of cells was followed over a period of approximately 2 weeks.

[5] = Homo sapiens, 168 h, read-out: IC50

Row | Compound | IC50 [1, 5] [µg/mL] | further results
1 | Cc1ncn(Nc2cccc(Cl)c2)c1-c1cccc(Br)c1 [HER/LI412 = NR779GLUCOSE] | – | IC50 [1]: 0.216 µg/mL (≈ 0.596 µM)
2 | Cc1[nH]c(=S)n(Nc2ccccc2Cl)c1-c1ccccc1 [HER/NR723] | 0.024 (≈ 0.076 µM) | –
3 | Cc1[nH]c(=S)n(Nc2cccc(Cl)c2)c1-c1ccccc1 [HER/NR724] | 0.34 (≈ 1.08 µM) | –
4 | Cc1[nH]c(=S)n(Nc2ccc(Cl)cc2)c1-c1ccccc1 [HER/NR725] | 0.176 (≈ 0.557 µM) | –
5 | Cc1ncn(Nc2cccc(Cl)c2)c1-c1ccccc1 [HER/NR746] | 0.081 (≈ 0.285 µM) | –
6 | CSc1nc(C)c(-c2ccccc2)n1Nc1cccc(Cl)c1 [HER/NR747] | 0.256 (≈ 0.776 µM) | –
7 | Cc1cccc(Nn2c(SCc3ccccc3)nc(C)c2-c2ccccc2)c1 [HER/NR748] | 0.325 (≈ 0.843 µM) | –
8 | Cc1[nH]c(=S)n(Nc2cccc(Cl)c2)c1-c1cccc(Br)c1 [HER/NR759] | 0.174 (≈ 0.441 µM) | –
9 | Cc1[nH]c(=S)n(Nc2cccc(Cl)c2)c1-c1ccc(Br)cc1 [HER/NR760] | 0.12 (≈ 0.304 µM) | –
10 | Cc1[nH]c(=S)n(Nc2cccc(Cl)c2)c1-c1cccc(Cl)c1 [HER/NR761] | 0.11 (≈ 0.314 µM) | –
11 | Cc1[nH]c(=S)n(Nc2cccc(Cl)c2)c1-c1ccc(Cl)cc1 [HER/NR762] | 0.061 (≈ 0.174 µM) | –
12 | COc1ccc(-c2c(C)[nH]c(=S)n2Nc2cccc(Cl)c2)cc1 [HER/NR763] | 0.456 (≈ 1.32 µM) | –
13 | Cc1[nH]c(=S)n(Nc2cccc(Cl)c2)c1-c1ccc(Cl)cc1Cl [HER/NR766] | 0.192 (≈ 0.499 µM) | –
14 | Cc1ccc(Nn2c(-c3ccccc3)c(C)[nH]c2=S)cc1C [HER/NR767] | 0.146 (≈ 0.472 µM) | –
15 | Cc1[nH]c(=S)n(Nc2cccc(Br)c2)c1-c1ccccc1 [HER/NR768] | 0.44 (≈ 1.22 µM) | –
16 | Cc1[nH]c(=S)n(Nc2cc(Cl)ccc2Cl)c1-c1ccccc1 [HER/NR769] | 0.434 (≈ 1.24 µM) | –
17 | Cc1[nH]c(=S)n(Nc2cccc(F)c2)c1-c1ccccc1 [HER/NR770] | 1.46 (≈ 4.88 µM) | –
18 | Cc1ccc(Nn2c(-c3ccccc3)c(C)[nH]c2=S)cc1Cl [HER/NR771] | 0.293 (≈ 0.888 µM) | –
19 | Cc1[nH]c(=S)n(Nc2ccccc2)c1-c1ccccc1 [HER/NR772] | 0.568 (≈ 2.02 µM) | –
20 | Cc1[nH]c(=S)n(Nc2ccc(F)cc2)c1-c1ccccc1 [HER/NR773] | 0.426 (≈ 1.42 µM) | –
21 | Cc1[nH]c(=S)n(Nc2cccc([N+](=O)[O-])c2)c1-c1ccccc1 [HER/NR774] | 2.13 (≈ 6.53 µM) | –
22 | Cc1cccc(Nn2c(-c3ccccc3)c(C)[nH]c2=S)c1 [HER/NR775] | 0.321 (≈ 1.09 µM) | –
23 | Cc1ncn(Nc2ccccc2)c1-c1ccccc1 [HER/NR776] | 0.455 (≈ 1.82 µM) | –
24 | Cc1ncn(Nc2cccc(Cl)c2)c1-c1cccc(Cl)c1 [HER/NR777] | 0.107 (≈ 0.336 µM) | –
25 | Cc1ncn(Nc2cccc(Cl)c2)c1-c1cccc(Br)c1 [HER/NR779] | – | IC50 [1]: 0.022 µg/mL (≈ 0.0607 µM)
26 | Cc1ncn(Nc2ccc(F)cc2)c1-c1ccccc1 [HER/NR786] | 0.191 (≈ 0.715 µM) | –
27 | Cc1cccc(Nn2c(-c3ccccc3)c(C(C)C)[nH]c2=S)c1 [HER/NR787] | 0.4 (≈ 1.24 µM) | –
28 | CCc1[nH]c(=S)n(Nc2cccc(C)c2)c1-c1ccccc1 [HER/NR788] | 0.341 (≈ 1.1 µM) | –

Row | Compound | IC50 [1, 5] [µg/mL] | further results
29 | CCc1[nH]c(=S)n(Nc2cccc(Cl)c2)c1-c1ccccc1 [HER/NR789] | 0.184 (≈ 0.558 µM) | –
30 | Cc1cccc(Nn2cnc(C)c2-c2ccccc2)c1 [HER/NR790] | 0.059 (≈ 0.224 µM) | –
31 | CCc1ncn(Nc2cccc(C)c2)c1-c1ccccc1 [HER/NR791] | 0.046 (≈ 0.166 µM) | –
32 | Cc1cc(C)cc(Nn2c(-c3ccccc3)c(C)[nH]c2=S)c1 [HER/NR798] | 0.496 (≈ 1.6 µM) | –
33 | COc1cccc(Nn2c(-c3ccccc3)c(C)[nH]c2=S)c1 [HER/NR801] | 1.35 (≈ 4.34 µM) | –
34 | COc1cccc(Nn2cnc(C)c2-c2ccccc2)c1 [HER/NR802] | 1.34 (≈ 4.79 µM) | –
35 | Cc1[nH]c(=S)n(Nc2cccc(Cl)c2)c1-c1cccc(C#N)c1 [HER/NR803] | 0.086 (≈ 0.252 µM) | –
36 | Cc1cccc(Nn2c(-c3cccc(C#N)c3)c(C)[nH]c2=S)c1 [HER/NR804] | 0.154 (≈ 0.481 µM) | –
37 | Cc1ncn(Nc2cccc(Cl)c2)c1-c1cccc(C#N)c1 [HER/NR805] | 0.09 (≈ 0.291 µM) | –
38 | Cc1cccc(Nn2cnc(C)c2-c2cccc(C#N)c2)c1 [HER/NR806] | 0.141 (≈ 0.489 µM) | –
39 | Cc1cc(C)cc(Nn2cnc(C)c2-c2ccccc2)c1 [HER/NR808] | 0.023 (≈ 0.0829 µM) | –
40 | Cc1cccc(Nn2cnc(C)c2-c2cccc(C(N)=O)c2)c1 [HER/NR809] | 0.33 (≈ 1.08 µM) | –
41 | Cc1[nH]c(=S)n(Nc2cccc(Cl)c2)c1-c1cccc(C(=O)O)c1 [HER/NR810] | 1 (≈ 2.79 µM) | –
42 | Cc1cccc(Nn2c(-c3cccc(C(=O)O)c3)c(C)[nH]c2=S)c1 [HER/NR811] | 1.9 (≈ 5.6 µM) | –
43 | COC(=O)c1cccc(-c2c(C)[nH]c(=S)n2Nc2cccc(Cl)c2)c1 [HER/NR812] | 0.328 (≈ 0.877 µM) | –
44 | Cc1[nH]c(=S)n(Nc2cccc(Cl)c2)c1-c1cccc(C(N)=O)c1 [HER/NR813] | 0.18 (≈ 0.502 µM) | –
45 | COC(=O)c1cccc(-c2c(C)ncn2Nc2cccc(Cl)c2)c1 [HER/NR814] | 0.172 (≈ 0.503 µM) | –
46 | Cc1ncn(Nc2cccc(Cl)c2)c1-c1cccc(C(=O)O)c1 [HER/NR815] | 0.805 (≈ 2.46 µM) | –
47 | CCc1ccc(Nn2c(-c3ccccc3)c(C)[nH]c2=S)cc1 [HER/NR861] | 0.106 (≈ 0.343 µM) | –
48 | CSc1ccc(Nn2c(-c3ccccc3)c(C)[nH]c2=S)cc1 [HER/NR862] | 0.027 (≈ 0.0824 µM) | –
49 | Cc1c(-c2ccccc2)n(N(C)c2ccccc2)c(=S)n1C [HER/NR863] | 3.85 (≈ 12.4 µM) | –
50 | Cc1ccc(Nn2cnc(C)c2-c2ccccc2)cc1Cl [HER/NR864] | 0.057 (≈ 0.191 µM) | –
51 | Cc1ncn(Nc2cccc(Cl)c2)c1-c1ccc(Br)cc1 [HER/NR865] | 0.071 (≈ 0.196 µM) | –
52 | Cc1[nH]c(=S)n(N(C)c2ccccc2)c1-c1ccccc1 [HER/NR866] | 0.195 (≈ 0.66 µM) | –
53 | Cc1[nH]c(=S)n(Nc2cccc3ccccc23)c1-c1cccc(Br)c1 [HER/NR914] | 0.045 (≈ 0.11 µM) | –
54 | Cc1[nH]c(=S)n(Nc2cccc3ccccc23)c1-c1cccc(Cl)c1 [HER/NR915] | 0.037 (≈ 0.101 µM) | –
55 | Cc1nc(SC(O)C(O)C(O)C(O)C(O)CO)n(Nc2cccc3ccccc23)c1-c1ccccc1 (stereo not shown) [HER/NR953] | 0.052 (≈ 0.102 µM) | IC50 on GSK-3α [2]: low micro-molar concentrations; IC50 on GSK-3β [3]: low micro-molar concentrations; PBMC cell viability, NAIM as such [4]: did not affect the cell viability
